Results as given in US10028960B2, “Pyrimidine compounds as JAK kinase inhibitors” (THERAVANCE BIOPHARMA R&D IP, LLC, priority 2016, dated 2018).
Read-outs that look alike come from different tables or passages of the source.

Assays:
JAK3 = JAK3 (Homo sapiens (Human), UniProt P52333); assay: LanthaScreen JAK biochemical assay, JAK3
Experimental: (§1) A panel of four LanthaScreen JAK biochemical assays (JAK1, 2, 3 and Tyk2) were carried in a common kinase reaction buffer (50 mM HEPES, pH 7.5, 0.01% Brij-35, 10 mM MgCl2, and 1 mM EGTA). Recombinant GST-tagged JAK enzymes and a GFP-tagged STAT1 peptide substrate were obtained from Life Technologies.

JAK2 = JAK2 (Homo sapiens (Human), UniProt O60674); assay: LanthaScreen JAK biochemical assay, JAK2
Experimental: as §1

[1] = test system: IL-13 induced STAT6 phosphorylation in HT-29 human colorectal adenocarcinoma cells; assay: Cellular JAK potency assay: inhibition of IL-13 induced STAT6 phosphorylation; format: cell-based; conditions: Homo sapiens; IL-13 induced STAT6 phosphorylation, HT-29 cells; read-out: HT-29 (pIC50) (converted)
Tyk2 = Tyk2 (Homo sapiens (Human), UniProt P29597); assay: LanthaScreen JAK biochemical assay, Tyk2; conditions: read-out: Tyk 2 (pKi) (converted)
Experimental: as §1

[2] = Determination of absorption in cannulated rats; format: in vivo, Sprague Dawley rats; conditions: rat; for bioavailability: Sprague Dawley, plasma (jugular vein), oral vs IV, read-out: oral bioavailability (F %); for absorption at the portal vein (Fa %): oral
Experimental: Oral bioavailability (F %), fraction absorbed (Fa %) and fraction escaping hepatic clearance (Fh %) were determined in Sprague Dawley rats from the following two studies:
(1) Pharmacokinetics in rats following an IV dose of test compound: Following IV dosing, plasma samples were typically collected from 0-6 hr. Drug levels were determined using an LC-MS-MS method. The resulting drug levels were used to compute the IV pharmacokinetic parameters: AUC IV and Dose IV.
(2) Rats that have been cannulated in their portal vein (PV) and also in their jugular vein (JV) were dosed orally with test compound. Following oral dosing, plasma samples were typically collected from 0-6 hr from both the portal vein and the jugular vein. Drug levels were determined using an LC-MS-MS method. The resulting drug levels were used to compute the following pharmacokinetic parameters: AUC PO PV, AUC PO JV, and Dose PO.
Using data derived from the above studies, the oral bioavailability F %, and the quantities Fa % and Fh % were calculated from the following formulas: F %=(AUC PO JV/AUC IV)*(Dose IV/Dose PO)*100 Fa %=(AUC PO PV/AUC IV)*(Dose IV/Dose PO)*100 Fh %=AUC PO JV/AUC PO PV
AUC PO JV=Area under the curve following oral dose and plasma collected from the jugular vein
AUC PO PV=Area under the curve following oral dose and plasma collected from the portal vein
AUC IV=Area under the curve following an intravenous dose
Dose IV=Intravenous Dose in mg/kg
Dose PO=Oral Dose in mg/kg

JAK1 = JAK1 (Homo sapiens (Human), UniProt P23458); assay: LanthaScreen JAK biochemical assay, JAK1; conditions: for Ki: read-out: JAK 1 (pKi) (converted)
Experimental: as §1

[3] = test system: oxazolone-induced colitis; assay: Mouse model of oxazolone-induced colitis; format: in vivo, BALB/C mice; conditions: mouse, PO, 1, 3, and/or 10 mg/kg BID
Experimental: Oxazolone-induced colitis is an experimental model that has a histological resemblance to human ulcerative colitis (Heller et al. […], 2002, 17, 629-638). Adult BALB/C mice from Harlan were used in the assay. On day 1, animals were lightly anesthetized with isoflurane and the hairs between the shoulder were carefully removed before oxazolone (4%, 150 μL, 4:1 acetone: olive oil formulation) or vehicle solution was slowly applied for skin sensitization. Seven days after skin sensitization, the mice were fasted overnight, anesthetized with isoflurane inhalation, and a 1 mL syringe equipped with a 3.5-F catheter, filled with oxazolone solution, was inserted carefully about 4 cm into the colon of the mouse. Following insertion, 50 μL of the oxazolone solution (1%, 1:1 ethanol:water formulation) was injected very slowly (over 30 sec using an injection pump) into the colon. The catheter was removed and the mice were held vertically (head down) for 2 min to ensure that the entire oxazolone solution remained inside the colon. Drug treatment (PO, BID or TID) or vehicle was initiated a day prior to the oxazolone intrarectal (IR) challenge. Two-day post oxazolone intrarectal challenge, the Disease Activity Index (DAI) was assessed by treatment-blinded experimenters for each mouse according to the criteria score: stool consistency score (0, normal; 2, loose; 4, diarrhea), gross bleeding score (0, absence; 2, blood tinged; 4, presence), and weight loss score (0, none; 1, 1%-5%; 2, 5%-10%; 3, 10%-20%; 4, more than 20%); DAI=average of (stool consistency score+gross bleeding score+weight loss score).
Selected compounds of the invention were tested in the assay. Efficacy in the model is evidenced by a decrease in DAI score as compared with the score from vehicle treated animals.

[4] = Dynamic moisture sorption assessment; format: physicochemical; conditions: for weight gain: humidity range of 5% to 90% relative humidity, 25° C.
Experimental: Dynamic moisture sorption (DMS) measurement was performed using a VTI atmospheric microbalance, SGA-100 system (VTI Corp., Hialeah, Fla. 33016). A weighed sample was used and the humidity was lowest possible value (close to 0% RH) at the start of the analysis. The DMS analysis consisted of an initial drying step (0% RH) for 120 minutes, followed by two cycles of sorption and desorption with a scan rate of 5% RH/step over the humidity range of 5% RH to 90% RH. The DMS run was performed isothermally at 25° C.

[5] = test system: mouse splenic NK, B and T cells; conditions: in vivo, po
Experimental: Depletion of mouse splenic cells is an experimental model of immunosuppression (Kudlacz et al., Am. J. of Transplantation, 2004, 4, 51-57). The compound of Example 2 was assessed in the mouse splenic cell model following the same treatment paradigm as that used in the oxazolone-induced colitis model (Assay 8).
The compound (1, 10 and 100 mg/kg, BID) and tofacitinib (30 and 60 mg/kg, BID) as a positive control were dosed orally for three days to naïve mice. Spleens were harvested 1 h post last dose and crushed immediately for cell subtype staining. Prior to fixation, fluorophore-labelled antibodies for CD19 (FITC; B cells), CD3e (PE; pan T cells) and DX5 (APC; NK cells) were incubated with splenocyte samples from each animal to allow for simultaneous, multiple subtype % analysis on the flow cytometer. The number of total spleen cells for each animal was measured by Scepter™ 2.0 Handheld Automated Cell Counter.
The absolute number of lymphocyte subtype population (e.g., splenic B, T and NK cells) was calculated from the percentage of each subtype times total spleen cells for each animal. A one way ANOVA, with Dunnett's post hoc test, was used to compare the splenic lymphocytes number of the vehicle and test compound groups. The a level was set at p<0.05. Data were presented as the mean±SEM for each group.

[6] = read-out: JAK 3 (pKi) (converted)

Chain of JAK2 (O60674 whole entry): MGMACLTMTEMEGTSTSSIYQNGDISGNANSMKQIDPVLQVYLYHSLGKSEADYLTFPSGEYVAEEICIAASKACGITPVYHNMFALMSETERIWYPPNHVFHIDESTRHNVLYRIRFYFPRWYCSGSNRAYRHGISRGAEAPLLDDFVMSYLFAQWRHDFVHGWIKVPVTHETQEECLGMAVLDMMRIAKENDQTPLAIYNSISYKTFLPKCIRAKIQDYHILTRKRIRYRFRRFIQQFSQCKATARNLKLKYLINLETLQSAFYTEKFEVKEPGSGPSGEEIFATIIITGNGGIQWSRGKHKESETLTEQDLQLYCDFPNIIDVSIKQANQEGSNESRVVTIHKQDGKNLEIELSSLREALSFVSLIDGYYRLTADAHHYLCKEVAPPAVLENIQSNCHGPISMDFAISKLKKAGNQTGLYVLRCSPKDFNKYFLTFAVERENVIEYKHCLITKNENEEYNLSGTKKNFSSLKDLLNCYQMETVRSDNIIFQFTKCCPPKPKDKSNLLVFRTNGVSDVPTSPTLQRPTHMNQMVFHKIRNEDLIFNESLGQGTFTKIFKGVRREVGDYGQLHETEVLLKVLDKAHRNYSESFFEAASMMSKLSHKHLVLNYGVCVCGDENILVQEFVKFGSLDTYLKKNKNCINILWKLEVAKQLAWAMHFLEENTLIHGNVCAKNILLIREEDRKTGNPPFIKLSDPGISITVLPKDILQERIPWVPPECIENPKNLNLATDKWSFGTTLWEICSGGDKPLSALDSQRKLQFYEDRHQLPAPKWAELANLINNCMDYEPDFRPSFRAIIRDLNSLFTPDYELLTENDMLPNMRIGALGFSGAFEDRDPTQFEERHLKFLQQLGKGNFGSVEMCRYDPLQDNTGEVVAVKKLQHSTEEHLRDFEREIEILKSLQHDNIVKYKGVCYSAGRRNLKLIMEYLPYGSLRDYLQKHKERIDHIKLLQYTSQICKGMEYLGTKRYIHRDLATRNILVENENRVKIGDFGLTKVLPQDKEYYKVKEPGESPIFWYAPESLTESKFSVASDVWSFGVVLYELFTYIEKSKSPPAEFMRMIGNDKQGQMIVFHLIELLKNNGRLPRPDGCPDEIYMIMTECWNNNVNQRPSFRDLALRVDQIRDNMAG
Chain of JAK1 (P23458 whole entry): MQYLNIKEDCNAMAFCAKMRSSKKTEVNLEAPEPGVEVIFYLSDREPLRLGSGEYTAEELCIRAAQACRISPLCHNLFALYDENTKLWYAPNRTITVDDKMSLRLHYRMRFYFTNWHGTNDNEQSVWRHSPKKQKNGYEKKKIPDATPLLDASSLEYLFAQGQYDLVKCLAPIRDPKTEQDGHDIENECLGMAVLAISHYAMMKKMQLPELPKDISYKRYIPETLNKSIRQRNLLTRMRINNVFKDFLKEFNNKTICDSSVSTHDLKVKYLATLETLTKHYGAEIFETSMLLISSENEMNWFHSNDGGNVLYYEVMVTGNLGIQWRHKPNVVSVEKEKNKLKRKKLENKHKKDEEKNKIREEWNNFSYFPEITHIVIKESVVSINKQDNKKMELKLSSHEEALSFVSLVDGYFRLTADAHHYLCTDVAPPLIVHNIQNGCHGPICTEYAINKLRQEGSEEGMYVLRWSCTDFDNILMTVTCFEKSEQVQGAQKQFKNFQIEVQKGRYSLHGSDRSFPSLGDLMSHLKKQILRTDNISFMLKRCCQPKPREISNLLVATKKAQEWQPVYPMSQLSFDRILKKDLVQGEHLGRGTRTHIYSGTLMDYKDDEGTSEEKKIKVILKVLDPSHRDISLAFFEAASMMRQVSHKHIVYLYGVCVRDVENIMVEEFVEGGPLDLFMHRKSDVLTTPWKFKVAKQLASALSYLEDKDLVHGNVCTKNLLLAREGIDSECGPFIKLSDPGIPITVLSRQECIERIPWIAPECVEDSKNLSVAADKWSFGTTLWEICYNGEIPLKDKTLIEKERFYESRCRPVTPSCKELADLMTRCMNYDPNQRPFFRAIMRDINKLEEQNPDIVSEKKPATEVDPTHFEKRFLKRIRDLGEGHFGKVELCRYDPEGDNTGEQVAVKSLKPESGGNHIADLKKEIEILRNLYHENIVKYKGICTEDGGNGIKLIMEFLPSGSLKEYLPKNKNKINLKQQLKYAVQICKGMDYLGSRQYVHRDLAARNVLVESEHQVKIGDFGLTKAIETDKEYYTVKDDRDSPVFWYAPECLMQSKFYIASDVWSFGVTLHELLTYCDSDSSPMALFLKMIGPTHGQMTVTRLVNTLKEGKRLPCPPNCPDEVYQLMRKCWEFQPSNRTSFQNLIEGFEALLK
Chain of Tyk2 (P29597 whole entry): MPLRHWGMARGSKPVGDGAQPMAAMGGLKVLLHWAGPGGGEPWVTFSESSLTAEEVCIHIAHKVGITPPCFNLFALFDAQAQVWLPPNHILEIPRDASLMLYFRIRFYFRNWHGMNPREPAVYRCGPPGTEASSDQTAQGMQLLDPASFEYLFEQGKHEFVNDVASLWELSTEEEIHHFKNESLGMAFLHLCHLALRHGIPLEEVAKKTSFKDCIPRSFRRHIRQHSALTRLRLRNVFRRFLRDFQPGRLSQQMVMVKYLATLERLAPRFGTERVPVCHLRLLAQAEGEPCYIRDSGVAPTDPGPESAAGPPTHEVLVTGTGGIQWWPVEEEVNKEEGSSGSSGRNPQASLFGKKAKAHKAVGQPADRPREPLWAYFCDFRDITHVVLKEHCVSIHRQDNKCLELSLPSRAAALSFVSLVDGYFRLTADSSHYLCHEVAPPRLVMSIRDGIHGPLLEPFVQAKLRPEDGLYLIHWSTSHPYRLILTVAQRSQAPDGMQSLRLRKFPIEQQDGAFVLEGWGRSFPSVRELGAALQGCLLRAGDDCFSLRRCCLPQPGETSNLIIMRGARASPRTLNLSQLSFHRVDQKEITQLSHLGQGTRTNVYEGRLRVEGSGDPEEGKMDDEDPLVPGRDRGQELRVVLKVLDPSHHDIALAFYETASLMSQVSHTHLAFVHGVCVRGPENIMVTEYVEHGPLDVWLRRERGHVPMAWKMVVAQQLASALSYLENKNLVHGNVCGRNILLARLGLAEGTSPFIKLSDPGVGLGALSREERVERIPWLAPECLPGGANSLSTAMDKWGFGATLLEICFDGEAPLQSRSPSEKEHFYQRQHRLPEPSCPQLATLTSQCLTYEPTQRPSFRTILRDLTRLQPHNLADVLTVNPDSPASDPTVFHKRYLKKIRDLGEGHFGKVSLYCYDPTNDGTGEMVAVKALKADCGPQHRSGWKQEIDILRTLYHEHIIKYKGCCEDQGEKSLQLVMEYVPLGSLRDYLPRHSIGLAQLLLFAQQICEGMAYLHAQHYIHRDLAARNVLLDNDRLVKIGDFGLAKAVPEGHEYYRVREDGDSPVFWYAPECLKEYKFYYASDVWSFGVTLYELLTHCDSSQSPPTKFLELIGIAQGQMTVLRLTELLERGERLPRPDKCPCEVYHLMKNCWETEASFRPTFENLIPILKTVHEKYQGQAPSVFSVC
Chain of JAK3 (P52333 whole entry): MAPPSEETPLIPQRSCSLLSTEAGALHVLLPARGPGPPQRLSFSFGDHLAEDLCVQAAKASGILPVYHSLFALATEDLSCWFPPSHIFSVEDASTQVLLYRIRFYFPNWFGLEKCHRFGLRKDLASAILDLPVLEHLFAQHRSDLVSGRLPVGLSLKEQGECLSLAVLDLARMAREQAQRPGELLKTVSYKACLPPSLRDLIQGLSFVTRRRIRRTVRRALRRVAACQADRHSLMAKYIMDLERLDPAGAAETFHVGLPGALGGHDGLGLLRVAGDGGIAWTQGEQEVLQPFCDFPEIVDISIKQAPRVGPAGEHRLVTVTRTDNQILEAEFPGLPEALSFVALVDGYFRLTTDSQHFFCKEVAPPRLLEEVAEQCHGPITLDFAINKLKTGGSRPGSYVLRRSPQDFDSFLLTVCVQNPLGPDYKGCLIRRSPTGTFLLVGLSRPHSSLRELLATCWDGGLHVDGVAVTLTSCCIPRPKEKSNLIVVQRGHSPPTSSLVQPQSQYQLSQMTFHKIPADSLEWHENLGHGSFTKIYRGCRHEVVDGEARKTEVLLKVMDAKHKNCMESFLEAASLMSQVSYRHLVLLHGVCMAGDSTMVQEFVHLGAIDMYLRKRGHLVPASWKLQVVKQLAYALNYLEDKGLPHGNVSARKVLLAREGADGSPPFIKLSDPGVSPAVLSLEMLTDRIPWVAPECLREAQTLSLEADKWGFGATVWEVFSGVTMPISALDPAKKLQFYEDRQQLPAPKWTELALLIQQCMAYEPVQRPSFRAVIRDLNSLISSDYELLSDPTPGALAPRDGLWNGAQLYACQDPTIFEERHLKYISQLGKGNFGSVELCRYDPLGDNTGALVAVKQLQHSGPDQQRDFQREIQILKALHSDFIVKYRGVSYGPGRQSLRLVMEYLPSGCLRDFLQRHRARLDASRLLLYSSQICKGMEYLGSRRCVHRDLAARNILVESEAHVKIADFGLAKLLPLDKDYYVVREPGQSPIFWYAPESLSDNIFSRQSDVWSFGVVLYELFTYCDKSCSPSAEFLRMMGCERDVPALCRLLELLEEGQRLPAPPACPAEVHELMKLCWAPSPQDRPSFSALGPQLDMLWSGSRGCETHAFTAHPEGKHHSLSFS

COc1cc(Nc2cc(CO)[nH]n2)nc(N(C)[C@@H]2C[C@H]3CC[C@@H](C2)N3S(=O)(=O)N2CC(C#N)C2)n1 [Example 1, 1-(((1R,3s,5S)-3-((4-((5-(Hydroxymethyl)-1H-pyrazol-3-yl)amino)-6-methoxypyrimidin-2-yl)(methyl)amino)-8-azabicyclo[3.2.1]octan-8-yl)sulfonyl)azetidine-3-carbonitrile]
Ki (JAK3): 1 to 10 nM
JAK 2 (pKi) (JAK2): A (A represents a pKi value≥10 (Ki≤0.1 nM))
IC50 [1]: 31.6 to 200 nM
Ki (Tyk2): 0.1 to 1 nM
bioavailability [2]: < 5%
absorption at the portal vein (Fa %) [2]: less than 25%
JAK 1 (pKi) (JAK1): A (A represents a pKi value≥10 (Ki≤0.1 nM))
decrease in DAI score as compared with vehicle treated animals [3]: did not exhibit a statistically significant decrease

COc1cc(Nc2cc(CO)[nH]n2)nc(N(C)[C@@H]2C[C@H]3CCC[C@@H](C2)N3S(C)(=O)=O)n1 [Example 3, (3-((6-methoxy-2-(methyl((1R,3s,5S)-9-(methylsulfonyl)-9-azabicyclo[3.3.1]nonan-3-yl)amino)pyrimidin-4-yl)amino)-1H-pyrazol-5-yl)methanol]
Ki (JAK3; [6]): 1 to 10 nM
JAK 2 (pKi) (JAK2): A (A represents a pKi value≥10 (Ki≤0.1 nM))
IC50 [1]: 31.6 to 200 nM
Ki (Tyk2): 0.1 to 1 nM
absorption at the portal vein (Fa %) [2]: greater than 40%
Ki (JAK1): 0.1 to 1 nM

COCCS(=O)(=O)N1[C@@H]2CCC[C@H]1C[C@H](N(C)c1nc(Nc3cc(CO)[nH]n3)cc(OC)n1)C2 [Example 4, (3-((6-methoxy-2-(((1R,3s,5S)-9-((2-methoxyethyl)sulfonyl)-9-azabicyclo[3.3.1]nonan-3-yl)(methyl)amino)pyrimidin-4-yl)amino)-1H-pyrazol-5-yl)methanol]
Ki (JAK3; [6]): 1 to 10 nM
JAK 2 (pKi) (JAK2): A (A represents a pKi value≥10 (Ki≤0.1 nM))
IC50 [1]: 31.6 to 200 nM
Ki (Tyk2): 0.1 to 1 nM
bioavailability [2]: < 5%
absorption at the portal vein (Fa %) [2]: greater than 40%
Ki (JAK1): 0.1 to 1 nM
decrease in DAI score as compared with vehicle treated animals [3]: statistically significant decrease

COc1cc(Nc2cc(CO)[nH]n2)nc(N(C)[C@@H]2C[C@H]3CCC[C@@H](C2)N3S(=O)(=O)N2CC(C#N)C2)n1 [Form I, 1-(((1R,3s,5S)-3-((4-((5-(hydroxymethyl)-1H-pyrazol-3-yl)amino)-6-methoxypyrimidin-2-yl)(methyl)amino)-9-azabicyclo[3.3.1]nonan-9-yl)sulfonyl)azetidine-3-carbonitrile]
weight gain [4]: less than 0.4%

COc1cc(Nc2cc(CO)[nH]n2)nc(N(C)[C@@H]2C[C@H]3CCC[C@@H](C2)N3S(=O)(=O)N2CC(C#N)C2)n1 [Form II, 1-(((1R,3s,5S)-3-((4-((5-(hydroxymethyl)-1H-pyrazol-3-yl)amino)-6-methoxypyrimidin-2-yl)(methyl)amino)-9-azabicyclo[3.3.1]nonan-9-yl)sulfonyl)azetidine-3-carbonitrile]
hygroscopicity ([4]; 5% to 90% relative humidity): slightly hygroscopic
weight gain [4]: about 1.2%

C[C@@H]1CCN(C(=O)CC#N)C[C@@H]1N(C)c1ncnc2[nH]ccc12 [tofacitinib, reference compound]
treatment effect on B and T cell populations [5]: No treatment effect
